Tested on: Rattus norvegicus
Experiment: Antiarrhythmic activity in anaesthetized rat assessed as inhibition of adrenaline-induced arrhythmia
Format: functional, Heart

SMILES | pED50
CCOc1ccccc1N1CCN(CC(O)CN2CCC(c3ccccc3)(c3ccccc3)C2=O)CC1 (stereo not drawn) | 2.66
COc1ccccc1N1CCN(CC(O)CN2CCC(c3ccccc3)(c3ccccc3)C2=O)CC1 (stereo not drawn) | 2.37
O=C1N(CC(O)CN2CCN(c3ccccc3C(F)(F)F)CC2)CCC1(c1ccccc1)c1ccccc1 (stereo not drawn) | 2.13
Cc1ccccc1N1CCN(CC(O)CN2CCC(c3ccccc3)(c3ccccc3)C2=O)CC1 (stereo not drawn) | 2.53
O=C1N(CC(O)CN2CCN(c3ccccc3)CC2)CCC1(c1ccccc1)c1ccccc1 (stereo not drawn) | 2.38
COc1ccc(Cl)cc1N1CCN(CC(O)CN2CCCC2=O)CC1 (stereo not drawn) | 1.48
CCNC(=O)OC(CN1CCN(c2ccccc2OC)CC1)CN1CCCC1=O (stereo not drawn) | 1.92
COc1ccccc1N1CCN(CC(CN2CCCC2=O)OC(=O)NC(C)C)CC1 (stereo not drawn) | 2.19
CCCNC(=O)OC(CN1CCN(c2ccccc2OC)CC1)CN1CCCC1=O (stereo not drawn) | 1.52
CCCC(=O)OC(CN1CCN(c2ccccc2OC(C)C)CC1)CN1CCCC1=O (stereo not drawn) | 1.77
CC(C)NC(=O)OC(CN1CCN(c2ccccc2Cl)CC1)CN1CCCC1=O (stereo not drawn) | 2
CCNC(=O)OC(CN1CCN(c2ccccc2)CC1)CN1CCCC1=O (stereo not drawn) | 1.66
CC(C)C(=O)OC(CN1CCN(c2ccccc2)CC1)CN1CCCC1=O (stereo not drawn) | 1.88
O=C(NCc1ccccc1)OC(CN1CCN(c2ccccc2)CC1)CN1CCCC1=O (stereo not drawn) | 1.47
CCCNC(=O)OC(CN1CCN(c2ccccc2)CC1)CN1CCCC1=O (stereo not drawn) | 1.52
O=C1CCCN1CCCN1CCN(c2ccccc2O)CC1 | 1.36
O=C1CCCN1CCCN1CCN(c2ccccc2)CC1 | 2.01

SMILES | pED50
COc1ccccc1N1CCN(CCCN2CCCC2=O)CC1 | 1.79
O=C1CCCN1CCCN1CCN(c2ccccc2Cl)CC1 | 1.8
O=C1CCCN1CCCN1CCN(c2ccccc2F)CC1 | 1.54
CCOc1ccccc1N1CCN(CCCN2CCCC2=O)CC1 | 2.52
O=C1CCCN1CCCN1CCN(c2cccc(C(F)(F)F)c2)CC1 | 1.45
COc1ccccc1N1CCN(CC(O)CN2CCCC2=O)CC1 (stereo not drawn) | 1.43
O=C1CCCN1CC(O)CN1CCN(c2ccc(Cl)cc2)CC1 (stereo not drawn) | 1.4
O=C1CCCN1CC(O)CN1CCN(c2ccccc2F)CC1 (stereo not drawn) | 1.79
COc1cccc(N2CCN(CC(O)CN3CCCC3=O)CC2)c1 (stereo not drawn) | 1.64
CCOc1ccccc1N1CCN(CC(O)CN2CCCC2=O)CC1 (stereo not drawn) | 1.97
Cc1ccccc1N1CCN(CC(O)CN2CCCC2=O)CC1 (stereo not drawn) | 1.55
O=C1CCCN1CC(O)CN1CCN(c2ccccc2O)CC1 (stereo not drawn) | 2.23
CC(C)Oc1ccccc1N1CCN(CC(O)CN2CCCC2=O)CC1 (stereo not drawn) | 1.77
O=C1CCCN1CC(O)CN1CCN(c2ccccc2C(F)(F)F)CC1 (stereo not drawn) | 1.31
O=C1CCCN1CC(O)CN1CCN(c2ccc(F)cc2F)CC1 (stereo not drawn) | 1.54
O=C1CCCN1CC(O)CN1CCN(c2ccccc2)CC1 (stereo not drawn) | 1.6

Reference: ChEMBL document CHEMBL3044894, “QSAR studies on a number of pyrrolidin-2-one antiarrhythmic arylpiperazinyls” (2012)
